Values quoted from earlier work in paper PMC6168745 (Diabetes, Obesity & Metabolism, 2016).

What was measured:
[1] = test system: people with type 2 diabetes
[2] = test system: participants with type 2 diabetes; details: + insulin glargine + metformin; CGM

| Substance | MAGE, large amplitude of glycaemic excursions and within-day s.d. of mean daily glucose ([1]; once daily, comparative trials with insulin) | MAGE from baseline ([1]; small uncontrolled study of Japanese people with type 2 diabetes) | glucose CV and MAGE compared with prandial insulin [2] |
| --- | --- | --- | --- |
| liraglutide | significantly reduced | significantly reduced |  |
| exenatide [Twice‐daily exenatide] |  |  | significantly reduced |
